Converted amounts (≈) assume the structure as drawn. Starred links: 1 amine or outer side, 2 acyl side, 3 side chain; linkers in the order of their positions; H or OH if unused. Non-standard residues stand in square brackets, D forms with d. Residues, ends and D or L forms follow the SMILES beside them. Groups on a side chain read outwards from the residue. *: point of attachment. γGlu = O=C(O)[C@H](CCC(=O)[*:2])N[*:1]; Palmitoyl = CCCCCCCCCCCCCCCC(=O)*; Aib = CC(C)(N)C(=O)O
Key:
CRF1R receptor = biological target: T1, CRF1R receptor (Homo sapiens, UniProt P34998); assay: cAMP activity at anti-target CRF1R, CRF1R-overexpression CHO cell line (Example 9); format: cell-based; details: CRF1R-overexpression CHO cell line; for EC50: 0% HSA; for Emax: read-out: Emax (%)
T1 construct: host or cells: CHO-K1 clone 2
T1 sequence (P34998 24-415): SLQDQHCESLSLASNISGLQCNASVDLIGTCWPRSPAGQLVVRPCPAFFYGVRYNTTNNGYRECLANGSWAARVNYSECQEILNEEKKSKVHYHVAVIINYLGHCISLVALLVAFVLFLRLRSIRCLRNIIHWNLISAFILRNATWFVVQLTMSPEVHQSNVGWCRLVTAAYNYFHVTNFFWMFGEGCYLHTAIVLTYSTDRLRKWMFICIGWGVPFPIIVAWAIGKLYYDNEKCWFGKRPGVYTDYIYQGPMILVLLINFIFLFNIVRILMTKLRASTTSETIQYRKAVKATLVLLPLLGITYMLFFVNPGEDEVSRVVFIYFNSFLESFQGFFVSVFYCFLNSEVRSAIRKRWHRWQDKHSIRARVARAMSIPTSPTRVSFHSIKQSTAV
How it was run: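 cAMP accumulation was read by HTRF after 30 min at room temperature of compound treatment. Cells were cryopreserved CHO cells overexpressing CRF1R, plated at 2000/well in IBMX (2 mM)-containing HBSS/HEPES buffer with 0 or 0.1% HSA. Activity was normalized to 1000 nM UCN2 as 100%.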

[1] = Solubility in buffer systems by UPLC-UV (Example 13); format: physicochemical
Procedure: Prior to performing the solubility measurements, the purity of the compounds was determined through UPLC/MS. […] Therefore, solutions from solid samples were prepared in a buffer system with a concentration of 10 mg/mL compound based on the previously determined % purity.
UPLC-UV was performed after 1 hour of gentle agitation from the supernatant, which was obtained after 15 minutes of centrifugation at 2500 RCF (relative centrifugal acceleration). The solubility was determined by the comparison of the UV peak area of a 2 μL-injection of a buffered sample diluted 1:10 with a standard curve of a reference compound with known concentration. The different UV extinction coefficients of sample and reference compound were calculated based on the different amino acid sequences and considered in the concentration calculation.

human CRF2α receptor = biological target: T2, human CRF2α receptor (Homo sapiens, UniProt Q13324); assay: cAMP agonism at human CRF2 α receptor in TeloHEAC cells (Example 7); format: cell-based; details: cAMP HTRF, TeloHEAC cells stably expressing human CRF2 α, 0% HSA; read-out: EC50 [nM], 0% HSA
T2 construct: expressed in transfected cells; host or cells: TeloHEAC
T2 sequence (Q13324 1-411): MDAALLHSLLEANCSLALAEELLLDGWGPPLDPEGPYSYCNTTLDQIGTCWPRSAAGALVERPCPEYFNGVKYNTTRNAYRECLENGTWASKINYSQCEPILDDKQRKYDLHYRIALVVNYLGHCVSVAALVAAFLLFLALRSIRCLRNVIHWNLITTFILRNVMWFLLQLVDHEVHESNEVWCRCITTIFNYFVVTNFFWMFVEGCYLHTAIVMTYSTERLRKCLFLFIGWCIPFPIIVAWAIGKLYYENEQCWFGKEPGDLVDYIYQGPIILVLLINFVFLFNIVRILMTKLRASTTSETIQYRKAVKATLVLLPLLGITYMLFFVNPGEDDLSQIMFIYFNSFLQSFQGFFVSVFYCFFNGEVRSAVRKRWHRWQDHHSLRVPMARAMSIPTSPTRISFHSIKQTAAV
How it was run: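 Thawed frozen stably transfected cells in HBSS/20 mM HEPES (0% or 0.1% HSA) plus 2 mM IBMX were exposed to compound at 2000 cells/well for 30 min at room temperature. Intracellular cAMP was read by HTRF (665/620 nm ratio) after 1 h lysis; EC50 was derived with 1000 nM urocortin 2 set as 100%.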

[2] = pH 7.4, Solubility in Buffer C [mg/ml]
[3] = pH 4.5, Solubility in Buffer A [mg/ml]
[4] = pH 4.5, Solubility in Buffer B [mg/ml]

Row | SMILES | EC50 (CRF1R receptor) | Emax (CRF1R receptor) | solubility at 1 h [1, 2] | solubility at 1 h [1, 3] | EC50 (human CRF2α receptor) | solubility at 1 h [1, 4]
1 | CCCCCCCCCCCCCCCC(=O)N[C@@H](CCC(=O)NCCCC[C@H](NC(=O)[C@@H](NC(=O)[C@H](CCCCN)NC(=O)[C@@H](NC(=O)[C@@H]1CCCN1C(=O)[C@@H](NC(=O)[C@H](CC(=O)O)NC(=O)[C@H](CC(C)C)NC(=O)[C@H](CO)NC(=O)[C@H](CC(C)C)NC(=O)[C@@H](NC(=O)[C@@H](N)Cc1ccccc1)[C@@H](C)O)C(C)C)[C@@H](C)O)[C@@H](C)CC)C(=O)N[C@@H](CCC(N)=O)C(=O)N[C@@H](CCCCN)C(=O)N[C@@H](CC(C)C)C(=O)N[C@@H](CC(C)C)C(=O)N[C@@H](CCCCN)C(=O)N[C@@H](CCC(N)=O)C(=O)N[C@@H](CCC(=O)O)C(=O)N[C@@H](CCCCN)C(=O)N[C@@H](CCC(N)=O)C(=O)N[C@@H](CCCCN)C(=O)N[C@@H](CCCCN)C(=O)N[C@@H](CCC(N)=O)C(=O)N[C@@H](CCCNC(=N)N)C(=O)N[C@@H](CCC(N)=O)C(=O)N[C@@H](CCCCN)C(=O)N[C@@H](C)C(=O)N[C@@H](CCCCN)C(=O)N[C@H](C(=O)N[C@@H](CC(N)=O)C(=O)N[C@@H](CCCCN)C(=O)N[C@@H](CCC(N)=O)C(=O)N[C@H](C(=O)N[C@@H](CC(C)C)C(=O)N[C@@H](CCC(=O)O)C(=O)N[C@@H](CCC(N)=O)C(=O)N[C@H](C(N)=O)C(C)C)[C@@H](C)CC)[C@@H](C)O)C(=O)O [compound 10] (H-FTLSLDVPTKIK([γGlu-Palmitoyl])QKLLKQEKQKKQRQKAKTNKQILEQV-NH2) | > 1000 nM | 10.2% | > 10000 µg/mL | – | – | –
2 | CCCCCCCCCCCCCCCC(=O)N[C@@H](CCC(=O)NCCCC[C@H](NC(=O)[C@@H](NC(=O)[C@H](CCCCN)NC(=O)[C@@H](NC(=O)[C@@H]1CCCN1C(=O)[C@@H](NC(=O)[C@H](CC(=O)O)NC(=O)[C@H](CC(C)C)NC(=O)[C@H](CO)NC(=O)[C@H](CC(C)C)NC(=O)[C@@H](NC(=O)[C@@H](N)Cc1ccccc1)[C@@H](C)O)C(C)C)[C@@H](C)O)[C@@H](C)CC)C(=O)N[C@@H](CCC(N)=O)C(=O)N[C@@H](CCCCN)C(=O)N[C@@H](CC(C)C)C(=O)N[C@@H](CC(C)C)C(=O)N[C@@H](CCCCN)C(=O)N[C@@H](CCC(N)=O)C(=O)N[C@@H](CCC(=O)O)C(=O)N[C@@H](CCCCN)C(=O)N[C@@H](CCC(N)=O)C(=O)N[C@@H](CCCNC(=N)N)C(=O)N[C@@H](CCCCN)C(=O)N[C@@H](CCC(N)=O)C(=O)N[C@@H](CCCCN)C(=O)N[C@@H](CCC(N)=O)C(=O)N[C@@H](CCCCN)C(=O)N[C@@H](C)C(=O)N[C@@H](CCCCN)C(=O)N[C@H](C(=O)N[C@@H](CC(N)=O)C(=O)N[C@@H](C)C(=O)N[C@@H](CCCCN)C(=O)N[C@H](C(=O)N[C@@H](CC(C)C)C(=O)N[C@@H](C)C(=O)N[C@@H](CCCNC(=N)N)C(=O)N[C@H](C(N)=O)C(C)C)[C@@H](C)CC)[C@@H](C)O)C(=O)O [compound 14] (H-FTLSLDVPTKIK([γGlu-Palmitoyl])QKLLKQEKQRKQKQKAKTNAKILARV-NH2; N-terminus assumed) | > 1000 nM | 14.1% | > 8700 µg/mL | > 9100 µg/mL | 0.18 nM | –
3 | CCCCCCCCCCCCCCCC(=O)N[C@@H](CCC(=O)NCCCC[C@H](NC(=O)[C@H](CC(C)C)NC(=O)[C@H](CCCCN)NC(=O)[C@@H](NC(=O)[C@@H]1CCCN1C(=O)[C@H](NC(=O)[C@H](CC(=O)O)NC(=O)[C@H](CC(C)C)NC(=O)[C@H](CO)NC(=O)[C@H](CC(C)C)NC(=O)[C@@H](NC(=O)[C@@H](N)[C@@H](C)CC)C(C)C)C(C)C)[C@@H](C)O)C(=O)N[C@@H](CCC(N)=O)C(=O)N[C@@H](CCCCN)C(=O)N[C@@H](CC(C)C)C(=O)N[C@@H](CC(C)C)C(=O)N[C@@H](CCCCN)C(=O)N[C@@H](CCC(N)=O)C(=O)N[C@@H](CCC(=O)O)C(=O)N[C@@H](CCCNC(=N)N)C(=O)N[C@@H](CCC(N)=O)C(=O)N[C@@H](CCCNC(=N)N)C(=O)NC(C)(C)C(=O)N[C@@H](CCC(=O)O)C(=O)N[C@@H](CCCNC(=N)N)C(=O)N[C@@H](CCC(=O)O)C(=O)N[C@@H](CCC(N)=O)C(=O)N[C@@H](C)C(=O)N[C@@H](CCC(=O)O)C(=O)N[C@@H](CCCCN)C(=O)N[C@@H](CC(N)=O)C(=O)N[C@@H](CCCCN)C(=O)N[C@@H](CCCNC(=N)N)C(=O)N[C@H](C(=O)N[C@@H](CC(C)C)C(=O)N[C@@H](CCC(=O)O)C(=O)N[C@@H](CCCNC(=N)N)C(=O)N[C@H](C(N)=O)C(C)C)[C@@H](C)CC)C(=O)O [compound 19] (H-IVLSLD[dV]PTKLK([γGlu-Palmitoyl])QKLLKQERQR[Aib]EREQAEKNKRILERV-NH2; N-terminus assumed) | – | 57.4% | 5700 µg/mL (≈ 1150 µM) | > 10200 µg/mL | 0.01 nM | > 10800 µg/mL

Now from value to compound:

Row | EC50 (CRF1R receptor) | Emax (CRF1R receptor) | solubility at 1 h [1, 2] | solubility at 1 h [1, 3] | EC50 (human CRF2α receptor) | solubility at 1 h [1, 4] | SMILES
4 | – | – | 6800 µg/mL (≈ 1370 µM) | > 9500 µg/mL | 0.01 nM | > 9100 µg/mL | CCCCCCCCCCCCCCCC(=O)N[C@@H](CCC(=O)NCCCC[C@H](NC(=O)[C@H](CC(C)C)NC(=O)[C@H](CCCCN)NC(=O)[C@@H](NC(=O)[C@@H]1CCCN1C(=O)[C@H](NC(=O)[C@H](CC(=O)O)NC(=O)[C@H](CC(C)C)NC(=O)[C@H](CO)NC(=O)[C@H](CC(C)C)NC(=O)[C@@H](NC(=O)[C@@H](N)[C@@H](C)CC)C(C)C)C(C)C)[C@@H](C)O)C(=O)N[C@@H](CCC(N)=O)C(=O)N[C@@H](CCCCN)C(=O)N[C@@H](CC(C)C)C(=O)N[C@@H](CC(C)C)C(=O)N[C@@H](CCCCN)C(=O)N[C@@H](CCC(N)=O)C(=O)N[C@@H](CCC(=O)O)C(=O)N[C@@H](CCCNC(=N)N)C(=O)N[C@@H](CCC(N)=O)C(=O)N[C@@H](CCCNC(=N)N)C(=O)N[C@@H](CCCCN)C(=O)NC(C)(C)C(=O)N[C@@H](CCCNC(=N)N)C(=O)N[C@@H](CCC(=O)O)C(=O)N[C@@H](CCC(N)=O)C(=O)N[C@@H](C)C(=O)N[C@@H](CCC(=O)O)C(=O)N[C@@H](CCCCN)C(=O)N[C@@H](CC(N)=O)C(=O)N[C@@H](CCCCN)C(=O)N[C@@H](CCCNC(=N)N)C(=O)N[C@H](C(=O)N[C@@H](CC(C)C)C(=O)N[C@@H](CCC(=O)O)C(=O)N[C@@H](CCCNC(=N)N)C(=O)N[C@H](C(N)=O)C(C)C)[C@@H](C)CC)C(=O)O [compound 20] (H-IVLSLD[dV]PTKLK([γGlu-Palmitoyl])QKLLKQERQRK[Aib]REQAEKNKRILERV-NH2; N-terminus assumed)
5 | – | – | 9100 µg/mL (≈ 1830 µM) | – | 0.02 nM | – | CCCCCCCCCCCCCCCC(=O)N[C@@H](CCC(=O)NCCCC[C@H](NC(=O)[C@H](CC(C)C)NC(=O)[C@H](CCCCN)NC(=O)[C@@H](NC(=O)[C@@H]1CCCN1C(=O)[C@H](NC(=O)[C@H](CC(=O)O)NC(=O)[C@H](CC(C)C)NC(=O)[C@H](CO)NC(=O)[C@H](CC(C)C)NC(=O)[C@@H](NC(=O)[C@@H](N)[C@@H](C)CC)C(C)C)C(C)C)[C@@H](C)O)C(=O)N[C@@H](CCC(N)=O)C(=O)N[C@@H](CCCCN)C(=O)N[C@@H](CC(C)C)C(=O)N[C@@H](CC(C)C)C(=O)N[C@@H](CCCCN)C(=O)N[C@@H](CCC(N)=O)C(=O)N[C@@H](CCC(=O)O)C(=O)N[C@@H](CCCNC(=N)N)C(=O)N[C@@H](CCC(N)=O)C(=O)N[C@@H](CCCNC(=N)N)C(=O)N[C@@H](CCCCN)C(=O)N[C@@H](CCC(=O)O)C(=O)N[C@@H](CCCNC(=N)N)C(=O)NC(C)(C)C(=O)N[C@@H](CCC(N)=O)C(=O)N[C@@H](C)C(=O)N[C@@H](CCC(=O)O)C(=O)N[C@@H](CCCCN)C(=O)N[C@@H](CC(N)=O)C(=O)N[C@@H](CCCCN)C(=O)N[C@@H](CCCNC(=N)N)C(=O)N[C@H](C(=O)N[C@@H](CC(C)C)C(=O)N[C@@H](CCC(=O)O)C(=O)N[C@@H](CCCNC(=N)N)C(=O)N[C@H](C(N)=O)C(C)C)[C@@H](C)CC)C(=O)O [compound 23] (H-IVLSLD[dV]PTKLK([γGlu-Palmitoyl])QKLLKQERQRKER[Aib]QAEKNKRILERV-NH2; N-terminus assumed)

— patent US12679878B2, “CRF2 receptor agonists and their use in therapy” (SANOFI, priority 2020, dated 2026)
